# Test system: Plasmodium berghei (Pb-Luc) exoerythrocytic-stage parasites
# Assay: microbe, parasite or virus in culture
# Settings: read-out: Inhibition% @ 50 uM rep1
row,SMILES,inhibition at 50 µM
1,CCN(CC)CCn1c(=N)n(CC(O)c2ccc(Cl)c(Cl)c2)c2ccccc21 (centres unmarked) [MMV000248],103%
2,Cc1ccc2nc(C)cc(Nc3cccc(C(F)(F)F)c3)c2c1 [MMV000326],103%
3,Oc1ccc(Br)cc1CN1CCN(Cc2cccc(F)c2)CC1 [MMV000356],100%
4,CC(C)(C)c1ccc2c(c1)CN(Cc1ccc(Cl)cc1)CO2 [MMV000442],100%
5,CCCCCCn1c(=N)n(CC(O)COc2cccc(C)c2)c2ccccc21 (centres unmarked) [MMV000445],102%
6,CC(O)(c1ccc(Cl)cc1)C(CN1CCCCC1)c1ccccc1 (centres unmarked) [MMV000620],101%
7,COc1ccc(NC(=O)C2c3ccccc3C(=O)N(CC(C)C)C2c2cccs2)cc1Cl (centres unmarked) [MMV000642],104%
8,COc1ccc(NC(=O)C2c3ccccc3C(=O)N(CC(C)C)C2c2cccs2)cc1 (centres unmarked) [MMV000662],102%
9,Cc1ccc(C2CC(C(F)(F)F)n3nc(C(=O)N4CCN(C(c5ccccc5)c5ccccc5)CC4)cc3N2)cc1 (centres unmarked) [MMV000699],102%
10,CCOC(=O)c1cnc2ccc(OC)cc2c1Nc1ccc(N2CCN(C)CC2)cc1 [MMV000704],101%
11,Cc1ccnc(NC(c2cccc(OCc3ccccc3)c2)c2ccc3cccnc3c2O)c1 (centres unmarked) [MMV000720],103%
12,Oc1ccc(-c2nc(-c3ccc4oc5ccc(-c6[nH]c(-c7ccc(O)cc7)nc6-c6ccccc6)cc5c4c3)c(-c3ccccc3)[nH]2)cc1 [MMV000753],104%
13,Oc1c(CN2CCN(c3ccccc3F)CC2)cc(Br)c2cccnc12 [MMV000760],102%
14,CCCOCc1cc(CN2CCN(c3cccc(Cl)c3)CC2)c(O)c2ncccc12 [MMV000787],100%
15,CC(C)OCc1cc(CN2CCN(c3cccc(Cl)c3)CC2)c(O)c2ncccc12 [MMV000788],103%

# Same assay, conditions: read-out: Inhibition% @ 50 uM rep2
row,SMILES,inhibition at 50 µM
1,CCN(CC)CCn1c(=N)n(CC(O)c2ccc(Cl)c(Cl)c2)c2ccccc21 (centres unmarked) [MMV000248],105%
2,Cc1ccc2nc(C)cc(Nc3cccc(C(F)(F)F)c3)c2c1 [MMV000326],103%
3,Oc1ccc(Br)cc1CN1CCN(Cc2cccc(F)c2)CC1 [MMV000356],92%
4,CC(C)(C)c1ccc2c(c1)CN(Cc1ccc(Cl)cc1)CO2 [MMV000442],101%
5,CCCCCCn1c(=N)n(CC(O)COc2cccc(C)c2)c2ccccc21 (centres unmarked) [MMV000445],103%
6,CC(O)(c1ccc(Cl)cc1)C(CN1CCCCC1)c1ccccc1 (centres unmarked) [MMV000620],102%
7,COc1ccc(NC(=O)C2c3ccccc3C(=O)N(CC(C)C)C2c2cccs2)cc1Cl (centres unmarked) [MMV000642],106%
8,COc1ccc(NC(=O)C2c3ccccc3C(=O)N(CC(C)C)C2c2cccs2)cc1 (centres unmarked) [MMV000662],106%
9,Cc1ccc(C2CC(C(F)(F)F)n3nc(C(=O)N4CCN(C(c5ccccc5)c5ccccc5)CC4)cc3N2)cc1 (centres unmarked) [MMV000699],101%
10,CCOC(=O)c1cnc2ccc(OC)cc2c1Nc1ccc(N2CCN(C)CC2)cc1 [MMV000704],102%
11,Cc1ccnc(NC(c2cccc(OCc3ccccc3)c2)c2ccc3cccnc3c2O)c1 (centres unmarked) [MMV000720],103%
12,Oc1ccc(-c2nc(-c3ccc4oc5ccc(-c6[nH]c(-c7ccc(O)cc7)nc6-c6ccccc6)cc5c4c3)c(-c3ccccc3)[nH]2)cc1 [MMV000753],104%
13,Oc1c(CN2CCN(c3ccccc3F)CC2)cc(Br)c2cccnc12 [MMV000760],101%
14,CCCOCc1cc(CN2CCN(c3cccc(Cl)c3)CC2)c(O)c2ncccc12 [MMV000787],100%
15,CC(C)OCc1cc(CN2CCN(c3cccc(Cl)c3)CC2)c(O)c2ncccc12 [MMV000788],106%

# Same assay, conditions: read-out: PbLuc IC50, dose response, 1/3 dilutions, max conc. 10 or 50 uM, unit inferred
row,SMILES,IC50
1,CCN(CC)CCn1c(=N)n(CC(O)c2ccc(Cl)c(Cl)c2)c2ccccc21 (centres unmarked) [MMV000248],8.5 µM
2,CCCCCCn1c(=N)n(CC(O)COc2cccc(C)c2)c2ccccc21 (centres unmarked) [MMV000445],4.75 µM
3,COc1ccc(NC(=O)C2c3ccccc3C(=O)N(CC(C)C)C2c2cccs2)cc1Cl (centres unmarked) [MMV000642],17 µM
4,COc1ccc(NC(=O)C2c3ccccc3C(=O)N(CC(C)C)C2c2cccs2)cc1 (centres unmarked) [MMV000662],17.5 µM
5,Cc1ccnc(NC(c2cccc(OCc3ccccc3)c2)c2ccc3cccnc3c2O)c1 (centres unmarked) [MMV000720],1.28 µM
6,Oc1ccc(-c2nc(-c3ccc4oc5ccc(-c6[nH]c(-c7ccc(O)cc7)nc6-c6ccccc6)cc5c4c3)c(-c3ccccc3)[nH]2)cc1 [MMV000753],5.88 µM
7,Oc1c(CN2CCN(c3ccccc3F)CC2)cc(Br)c2cccnc12 [MMV000760],1.84 µM
8,CCCOCc1cc(CN2CCN(c3cccc(Cl)c3)CC2)c(O)c2ncccc12 [MMV000787],0.94 µM
9,CC(C)OCc1cc(CN2CCN(c3cccc(Cl)c3)CC2)c(O)c2ncccc12 [MMV000788],0.99 µM

# Same assay, conditions: read-out: PbLuc max inhibition (%) @ 50 uM
row,SMILES,inhibition at 50 µM
1,CCN(CC)CCn1c(=N)n(CC(O)c2ccc(Cl)c(Cl)c2)c2ccccc21 (centres unmarked) [MMV000248],99%
2,CCCCCCn1c(=N)n(CC(O)COc2cccc(C)c2)c2ccccc21 (centres unmarked) [MMV000445],100%
3,COc1ccc(NC(=O)C2c3ccccc3C(=O)N(CC(C)C)C2c2cccs2)cc1Cl (centres unmarked) [MMV000642],97%
4,COc1ccc(NC(=O)C2c3ccccc3C(=O)N(CC(C)C)C2c2cccs2)cc1 (centres unmarked) [MMV000662],98%
5,Cc1ccnc(NC(c2cccc(OCc3ccccc3)c2)c2ccc3cccnc3c2O)c1 (centres unmarked) [MMV000720],100%
6,Oc1ccc(-c2nc(-c3ccc4oc5ccc(-c6[nH]c(-c7ccc(O)cc7)nc6-c6ccccc6)cc5c4c3)c(-c3ccccc3)[nH]2)cc1 [MMV000753],99%
7,Oc1c(CN2CCN(c3ccccc3F)CC2)cc(Br)c2cccnc12 [MMV000760],93%
8,CCCOCc1cc(CN2CCN(c3cccc(Cl)c3)CC2)c(O)c2ncccc12 [MMV000787],101%
9,CC(C)OCc1cc(CN2CCN(c3cccc(Cl)c3)CC2)c(O)c2ncccc12 [MMV000788],101%

# Test system: HepG2-A16-CD81EGFP cells
# Assay: cells
# Settings: Homo sapiens, HepG2, read-out: HepG2 Tox% @ 50 uM rep1
row,SMILES,cytotoxicity at 50 µM
1,CCN(CC)CCn1c(=N)n(CC(O)c2ccc(Cl)c(Cl)c2)c2ccccc21 (centres unmarked) [MMV000248],101%
2,Cc1ccc2nc(C)cc(Nc3cccc(C(F)(F)F)c3)c2c1 [MMV000326],100%
3,Oc1ccc(Br)cc1CN1CCN(Cc2cccc(F)c2)CC1 [MMV000356],64%
4,CC(C)(C)c1ccc2c(c1)CN(Cc1ccc(Cl)cc1)CO2 [MMV000442],97%
5,CCCCCCn1c(=N)n(CC(O)COc2cccc(C)c2)c2ccccc21 (centres unmarked) [MMV000445],99%
6,CC(O)(c1ccc(Cl)cc1)C(CN1CCCCC1)c1ccccc1 (centres unmarked) [MMV000620],63%
7,COc1ccc(NC(=O)C2c3ccccc3C(=O)N(CC(C)C)C2c2cccs2)cc1Cl (centres unmarked) [MMV000642],50%
8,COc1ccc(NC(=O)C2c3ccccc3C(=O)N(CC(C)C)C2c2cccs2)cc1 (centres unmarked) [MMV000662],37%
9,Cc1ccc(C2CC(C(F)(F)F)n3nc(C(=O)N4CCN(C(c5ccccc5)c5ccccc5)CC4)cc3N2)cc1 (centres unmarked) [MMV000699],49%
10,CCOC(=O)c1cnc2ccc(OC)cc2c1Nc1ccc(N2CCN(C)CC2)cc1 [MMV000704],97%
11,Cc1ccnc(NC(c2cccc(OCc3ccccc3)c2)c2ccc3cccnc3c2O)c1 (centres unmarked) [MMV000720],99%
12,Oc1ccc(-c2nc(-c3ccc4oc5ccc(-c6[nH]c(-c7ccc(O)cc7)nc6-c6ccccc6)cc5c4c3)c(-c3ccccc3)[nH]2)cc1 [MMV000753],101%
13,Oc1c(CN2CCN(c3ccccc3F)CC2)cc(Br)c2cccnc12 [MMV000760],95%
14,CCCOCc1cc(CN2CCN(c3cccc(Cl)c3)CC2)c(O)c2ncccc12 [MMV000787],93%
15,CC(C)OCc1cc(CN2CCN(c3cccc(Cl)c3)CC2)c(O)c2ncccc12 [MMV000788],99%

# Same assay, conditions: Homo sapiens, HepG2, read-out: HepG2 Tox% @ 50 uM rep2
row,SMILES,cytotoxicity at 50 µM
1,CCN(CC)CCn1c(=N)n(CC(O)c2ccc(Cl)c(Cl)c2)c2ccccc21 (centres unmarked) [MMV000248],102%
2,CC(O)(c1ccc(Cl)cc1)C(CN1CCCCC1)c1ccccc1 (centres unmarked) [MMV000620],90%
3,COc1ccc(NC(=O)C2c3ccccc3C(=O)N(CC(C)C)C2c2cccs2)cc1Cl (centres unmarked) [MMV000642],30%
4,COc1ccc(NC(=O)C2c3ccccc3C(=O)N(CC(C)C)C2c2cccs2)cc1 (centres unmarked) [MMV000662],50%
5,CC(C)OCc1cc(CN2CCN(c3cccc(Cl)c3)CC2)c(O)c2ncccc12 [MMV000788],100%

# Same assay, conditions: Homo sapiens, HepG2, read-out: Tox IC50
row,SMILES,IC50
1,CCN(CC)CCn1c(=N)n(CC(O)c2ccc(Cl)c(Cl)c2)c2ccccc21 (centres unmarked) [MMV000248],27.1 µM
2,CCCCCCn1c(=N)n(CC(O)COc2cccc(C)c2)c2ccccc21 (centres unmarked) [MMV000445],13.7 µM
3,COc1ccc(NC(=O)C2c3ccccc3C(=O)N(CC(C)C)C2c2cccs2)cc1Cl (centres unmarked) [MMV000642],> 50 µM
4,COc1ccc(NC(=O)C2c3ccccc3C(=O)N(CC(C)C)C2c2cccs2)cc1 (centres unmarked) [MMV000662],> 50 µM
5,Cc1ccnc(NC(c2cccc(OCc3ccccc3)c2)c2ccc3cccnc3c2O)c1 (centres unmarked) [MMV000720],5.05 µM
6,Oc1ccc(-c2nc(-c3ccc4oc5ccc(-c6[nH]c(-c7ccc(O)cc7)nc6-c6ccccc6)cc5c4c3)c(-c3ccccc3)[nH]2)cc1 [MMV000753],> 50 µM
7,Oc1c(CN2CCN(c3ccccc3F)CC2)cc(Br)c2cccnc12 [MMV000760],11.5 µM
8,CCCOCc1cc(CN2CCN(c3cccc(Cl)c3)CC2)c(O)c2ncccc12 [MMV000787],3.49 µM
9,CC(C)OCc1cc(CN2CCN(c3cccc(Cl)c3)CC2)c(O)c2ncccc12 [MMV000788],3.01 µM

# Same assay, conditions: Homo sapiens, HepG2, read-out: Tox max inhibition (%) @ 50 uM
row,SMILES,inhibition at 50 µM
1,CCN(CC)CCn1c(=N)n(CC(O)c2ccc(Cl)c(Cl)c2)c2ccccc21 (centres unmarked) [MMV000248],98%
2,CCCCCCn1c(=N)n(CC(O)COc2cccc(C)c2)c2ccccc21 (centres unmarked) [MMV000445],99%
3,COc1ccc(NC(=O)C2c3ccccc3C(=O)N(CC(C)C)C2c2cccs2)cc1Cl (centres unmarked) [MMV000642],24%
4,COc1ccc(NC(=O)C2c3ccccc3C(=O)N(CC(C)C)C2c2cccs2)cc1 (centres unmarked) [MMV000662],37%
5,Cc1ccnc(NC(c2cccc(OCc3ccccc3)c2)c2ccc3cccnc3c2O)c1 (centres unmarked) [MMV000720],99%
6,Oc1ccc(-c2nc(-c3ccc4oc5ccc(-c6[nH]c(-c7ccc(O)cc7)nc6-c6ccccc6)cc5c4c3)c(-c3ccccc3)[nH]2)cc1 [MMV000753],39%
7,Oc1c(CN2CCN(c3ccccc3F)CC2)cc(Br)c2cccnc12 [MMV000760],78%
8,CCCOCc1cc(CN2CCN(c3cccc(Cl)c3)CC2)c(O)c2ncccc12 [MMV000787],100%
9,CC(C)OCc1cc(CN2CCN(c3cccc(Cl)c3)CC2)c(O)c2ncccc12 [MMV000788],94%
